Source: patent publication US9546129B2, “DTPA prodrugs, compositions thereof, and methods of using the same” (priority 2012, dated 2017)

Assay: Stability of C2E2 in plasma (human)
Assay type: in vitro ADME
Settings: 37° C.
Method: Prior to the study, 975 μL of plasma (Rat, Beagle and Human) was preheated to 37° C. in Eppendorff tubes and the test compound (C2E2) was prepared in DI water (10 mg/mL). The C2E2 was from Lot 050 obtained using Method 2. To initiate the study, 25 μL of the C2E2 solution was added to the pre-heated plasma and briefly vortexed, to mix. At 0, 15, 30, 60 and 120 minutes a 100 μL sample of plasma was taken, an equal volume of cold acetonitrile was added and mixed to precipitate plasma proteins. Samples were centrifuged at 4° C. and 14,000×g for 10 minutes to remove precipitated proteins, the supernatant was collected and the C2E2 concentration determined by HPLC-CAD. All conditions were repeated in triplicate.
HPLC Detection Methods: C2E2 analysis was performed on a prominence HPLC (Shimadzu Corporation, Kyoto, Japan) equipped with a Corona Ultra charged […] detector (CAD) (Thermo scientific, Sunnyvale, Calif.). […]
The gradient is 0.01-34.99 min: 22% B; 35.00-44.99 min: 33% B; 45.00-60.00 min: 38% B. The flow rate is 1.0 mL/min, a Thermo Hypersil ODS column (150 mm 4.6 mm i.d. with 5.0 μm particles) will be used, injection volume will be 10 μL and column oven temperature maintained at 25° C. […] The limit of quantification is 0.35 μg/mL. […]

CCOC(=O)CN(CCN(CCN(CC(=O)O)CC(=O)OCC)CC(=O)O)CC(=O)O [C2E2, 6,9-bis(carboxymethyl)-3-(2-ethoxy-2-oxoethyl)-11-oxo-12-oxa-3,6,9-triazatetradecan-1-oic acid]
C2E2 remaining (after 2 hours): approximately 90% | Metabolism in plasma (observation) (up to two hours): minimal or not detected
